Values of other authors as cited in US9241912B2, “Agrochemical formulation comprising encapsulated pesticide” (priority 2011, dated 2016).
Values after ≈ are worked out from the molar mass of the structure shown.

conditions: at 20° C.

Row | Compound | solubility in water [µg/mL]
1 | CC(C)C(=O)C(C)(C)C [2,2,4-trimethyl-3-pentanone] | 5500 (≈ 42.9 mM)
2 | CCCC(=O)C(C)(C)C [2,2-dimethyl-3-hexanone] | 2800 (≈ 21.8 mM)
3 | CCC(=O)C(C)(C)C [2,2-dimethyl-3-pentanone] | 10400 (≈ 91.1 mM)
4 | CCCCC(=O)C(C)C [2-methyl-3-heptanone] | 1400 (≈ 10.9 mM)
5 | CCCC(=O)C(C)C [2-methyl-3-hexanone] | 6300 (≈ 55.2 mM)
6 | CCCC(=O)CC(C)C [2-methyl-4-heptanone] | 1700 (≈ 13.3 mM)
7 | CCCC(C)(C)C(C)=O [3,3-dimethyl-2-hexanone] | 2700 (≈ 21.1 mM)
8 | CCC(C)(C)C(C)=O [3,3-dimethyl-2-pentanone] | 7300 (≈ 63.9 mM)
9 | CCC(C)C(C)C(C)=O (stereo not shown) [3,4-dimethyl-2-hexanone] | 1400 (≈ 10.9 mM)
10 | CC(=O)C(C)C(C)C (stereo not shown) [3,4-dimethyl-2-pentanone] | 6700 (≈ 58.7 mM)
11 | CCC(CC)C(C)=O [3-ethyl-2-pentanone] | 4600 (≈ 40.3 mM)
12 | CCC(C)(CC)C(C)=O [3-ethyl-3-methyl-2-pentanone] | 1800 (≈ 14 mM)
13 | CCC(C(C)=O)C(C)C (stereo not shown) [3-ethyl-4-methyl-2-pentanone] | 1700 (≈ 13.3 mM)
14 | CCCCC(C)C(C)=O (stereo not shown) [3-methyl-2-heptanone] | 900 (≈ 7.02 mM)
15 | CCCC(C)C(C)=O (stereo not shown) [3-methyl-2-hexanone] | 4100 (≈ 35.9 mM)
16 | CCCC(=O)C(C)CC (stereo not shown) [3-methyl-4-heptanone] | 1900 (≈ 14.8 mM)
17 | CC(=O)CC(C)(C)C [4,4-dimethyl-2-pentanone] | 10400 (≈ 91.1 mM)
18 | CCC(=O)C(C)(C)CC [4,4-dimethyl-3-hexanone] | 2500 (≈ 19.5 mM)
19 | CCC(C)CC(C)=O (stereo not shown) [4-methyl-2-hexanone] | 4300 (≈ 37.7 mM)
20 | CCC(=O)C(C)CC (stereo not shown) [4-methyl-3-hexanone] | 5200 (≈ 45.5 mM)
21 | CCC(C)CCC(C)=O (stereo not shown) [5-methyl-2-heptanone] | 1000 (≈ 7.8 mM)
22 | CCC(=O)CC(C)C [5-methyl-3-hexanone] | 5200 (≈ 45.5 mM)
23 | CC(=O)CCCC(C)C [6-methyl-2-heptanone] | 800 (≈ 6.24 mM)
24 | CCC(=O)CCC(C)C [6-methyl-3-heptanone] | 900 (≈ 7.02 mM)
25 | CCCCC(C)=O [Example 2-hexanone, 2-hexanone] | 14000 (≈ 140 mM)
26 | CCCCC(=O)CCC [Example 4-octanone, 4-octanone] | 1000 (≈ 7.8 mM)
27 | CC1=CC(=O)CC(C)(C)C1 [isoporone] | 15000 (≈ 109 mM)

same assay, conditions: not suitable as solvent B

Row | Compound | solubility in water (in words)
28 | CC(C)=O [acetone] | completely miscible with water
